Laboratory results reported in US20090181975A1, “NEBIVOLOL IN THE TREATMENT OF SEXUAL DYSFUNCTION” (FOREST LABORATORIES HOLDINGS LIMITED, priority 2008, published 2009).

Legend:
anesthetized rats = assay: Erectile responses: intracavernosal pressure (ICP) increases to cavernosal nerve electrical stimulation; type: in vivo, rat (Sprague-Dawley); settings: 3 mg/kg i.v.
Description: The effects of nebivolol administration on rat erectile function were studied. Erectile responses in rats were evaluated by measuring intracavernosal pressure (ICP) increases to cavernosal nerve electrical stimulation. To measure ICP, rats (Sprague-Dawley) were anesthetized with ketolar and diazepam. The surgical procedure included dissection and isolation of the right cavernous nerve through an abdominal midline incision and exposure of penile crura through a transverse perineal incision. ICP measurements were permitted by insertion of a 23-gauge needle into the right crus. The right carotid artery and left external jugular vein were catheterized for constant blood pressure measurement and saline infusion, respectively. Electrostimulation was performed with a delicate platinum bipolar hook electrode connected to a stimulator and current amplifier. Parameters of electrical stimulation included pulses with a duration of 0.3 ms and 1.5 mA of current intensity for 1 min. Frequency-response curves were performed by applying stimulation at 1, 3 and 10 Hz with a lapse of 3 min between each increase of frequency.

[1] = test system: spontaneous hypertensive rats; settings: acute; cited from earlier work
anaesthetized dogs = settings: cited from earlier work

OC(CNCC(O)C1CCc2cc(F)ccc2O1)C1CCc2cc(F)ccc2O1 (racemic) [nebivolol, α,α′-iminobis(methylene)bis[6-fluoro-2-chromanmethanol]]
effect on erectile responses to CNES (anesthetized rats): significantly potentiated | AUC of ICP at 3 Hz (anesthetized rats; control 1612±294, p<0.05): 2544±440 mmHg×s | effect on blood pressure [1]: acutely lowers blood pressure | effect on stroke volume (anaesthetized dogs): augments stroke volume | effect on total peripheral vascular resistance (anaesthetized dogs): decreases total peripheral vascular resistance
